Laboratory results published in PubChem BioAssay AID220 (DTP/NCI, 2004).
Values joined by “and” are separate entries in the source; they are usually repeats but may differ in a detail not shown here. Equal values may be shown once. Results filed as inconclusive are left out.

System: CD8F1 mice, subcutaneous mammary adenocarcinoma, T/C%
Test: NCI In Vivo Anticancer Drug Screen. Data for tumor model Mammary Adenocarcinoma CD8F1 (subcutaneous) in CD8F1
Details: higher = larger tumour
Experimental: The antitumor activity of compounds was measured in mice bearing transplantable tumors. Survival or tumor size were measured and the results are expressed as the measurement made in the treated group (T) divided by the measurement made in the vehicle treated control group (C). The tumor model used in this assay is Mammary Adenocarcinoma CD8F1 (subcutaneous) in CD8F1

[1] = endpoint: median tumor weight (est.), dose: 12.5 mg/kg/injection, schedule: Q07DX005 (ip), vehicle: saline with Tween-80
[2] = endpoint: median tumor weight (est.), dose: 25.0 mg/kg/injection, schedule: Q07DX005 (ip), vehicle: saline with Tween-80
[3] = endpoint: median tumor weight (est.), dose: 50.0 mg/kg/injection, schedule: Q07DX005 (ip), vehicle: saline with Tween-80
[4] = endpoint: median tumor weight (est.), dose: 100.0 mg/kg/injection, schedule: Q07DX005 (ip), vehicle: saline with Tween-80
[5] = endpoint: median tumor weight change, dose: 250.0 mg/kg/injection, schedule: Q01DX001 (ip), vehicle: Klucel (hydroxypropylcellulose) (HPC)

O=Cc1ccc(C(Cl)(Cl)Cl)cc1
T/C [1]: 94 % of control | T/C [2]: 55 % of control | T/C [3]: 97 % of control | T/C [4]: 68 % of control | T/C (endpoint: median tumor weight (est.), dose: 200.0 mg/kg/injection, schedule: Q07DX005 (ip), vehicle: saline with Tween-80): 81 % of control

CCc1c(CC(=O)O)c2cc(C)ccc2n1Cc1ccc(Cl)cc1
T/C (endpoint: median tumor weight change, dose: 125.0 mg/kg/injection, schedule: Q01DX001 (ip), vehicle: Klucel (hydroxypropylcellulose) (HPC)): 89 % of control | T/C [5]: 101 % of control

COC(=O)C(F)C(Br)C(=O)OC (configuration not stated)
T/C (endpoint: median tumor weight (est.), dose: 6.25 mg/kg/injection, schedule: Q07DX005 (ip), vehicle: saline with Tween-80): 61 % of control | T/C [1]: 87 % of control | T/C [2]: 106 % of control | T/C [3]: 74 % of control | T/C [4]: 77 % of control

Nc1ncnc2nc[nH]c12
T/C (endpoint: median tumor weight (est.), dose: 64.0 mg/kg/injection, schedule: Q07DX005 (ip), vehicle: Klucel (hydroxypropylcellulose) (HPC)): 75 % of control and 77 % of control and 78 % of control | T/C (endpoint: median tumor weight (est.), dose: 512.0 mg/kg/injection, schedule: Q07DX005 (ip), vehicle: Klucel (hydroxypropylcellulose) (HPC)): 17 % of control and 31 % of control

C=C1C(=O)C23[C@H](O)C1CC[C@H]2[C@]12COC3(O)[C@@H](O)[C@@H]1C(C)(C)CC[C@@H]2O
T/C (endpoint: median tumor weight (est.), dose: 8.75 mg/kg/injection, schedule: Q07DX005 (ip), vehicle: Klucel (hydroxypropylcellulose) (HPC)): 104 % of control | T/C (endpoint: median tumor weight (est.), dose: 17.5 mg/kg/injection, schedule: Q07DX005 (ip), vehicle: Klucel (hydroxypropylcellulose) (HPC)): 65 % of control | T/C (endpoint: median tumor weight change, dose: 15.62 mg/kg/injection, schedule: Q01DX001 (ip), vehicle: saline with Tween-80): 54 % of control | T/C (endpoint: median tumor weight change, dose: 31.25 mg/kg/injection, schedule: Q01DX001 (ip), vehicle: saline with Tween-80): 61 % of control

CCCC(=O)Nc1ncnc2c1ncn2C1OC2COP(=O)(O)OC2C1OC(=O)CCC (configuration not stated)
T/C (endpoint: mean tumor weight, dose: 50.0 mg/kg/injection, schedule: Q01DX009 (ip), vehicle: saline): 100 % of control | T/C (endpoint: mean tumor weight, dose: 100.0 mg/kg/injection, schedule: Q07DX007 (ip), vehicle: saline): 117 % of control | T/C (endpoint: mean tumor weight, dose: 200.0 mg/kg/injection, schedule: Q01DX009 (ip), vehicle: saline): 111 % of control | T/C (endpoint: mean tumor weight, dose: 200.0 mg/kg/injection, schedule: Q07DX007 (ip), vehicle: saline): 78 % of control | T/C (endpoint: mean tumor weight, dose: 400.0 mg/kg/injection, schedule: Q01DX009 (ip), vehicle: saline): 55 % of control | T/C (endpoint: mean tumor weight, dose: 400.0 mg/kg/injection, schedule: Q07DX007 (ip), vehicle: saline): 43 % of control | T/C (endpoint: median tumor weight (est.), dose: 25.0 mg/kg/injection, schedule: Q07DX005 (ip), vehicle: saline): 75 % of control | T/C (endpoint: median tumor weight (est.), dose: 50.0 mg/kg/injection, schedule: Q07DX005 (ip), vehicle: saline): 114 % of control | T/C (endpoint: median tumor weight (est.), dose: 100.0 mg/kg/injection, schedule: Q07DX005 (ip), vehicle: saline): 122 % of control | T/C (endpoint: median tumor weight (est.), dose: 200.0 mg/kg/injection, schedule: Q07DX005 (ip), vehicle: saline): 77 % of control | T/C (endpoint: median tumor weight (est.), dose: 400.0 mg/kg/injection, schedule: Q07DX005 (ip), vehicle: saline): 83 % of control | T/C (endpoint: median tumor weight (est.), dose: 800.0 mg/kg/injection, schedule: Q07DX005 (ip), vehicle: saline): 72 % of control

Clc1ccc(C2SC=Cc3ccccc32)cc1 (configuration not stated)
T/C (endpoint: median tumor weight change, dose: 62.0 mg/kg/injection, schedule: Q01DX001 (ip), vehicle: Klucel (hydroxypropylcellulose) (HPC)): 88 % of control | T/C [5]: 50 % of control and 54 % of control and 58 % of control

C=C1C(=O)OCC1C(=O)O (configuration not stated)
T/C (endpoint: median tumor weight change, dose: 15.62 mg/kg/injection, schedule: Q01DX001 (ip), vehicle: suspension in saline): 101 % of control | T/C (endpoint: median tumor weight change, dose: 62.5 mg/kg/injection, schedule: Q01DX001 (ip), vehicle: suspension in saline): 89 % of control | T/C (endpoint: median tumor weight change, dose: 125.0 mg/kg/injection, schedule: Q01DX001 (ip), vehicle: suspension in saline): 123 % of control

CO[C@H](C(=O)[C@@H](O)[C@@H](C)O)[C@@H]1Cc2cc3cc(OC4CC(OC5CC(O)C(O)C(C)O5)C(O)C(C)O4)c(C)c(O)c3c(O)c2C(=O)[C@H]1OC1CC(OC2CC(OC3CC(C)(O)C(O)C(C)O3)C(O)C(C)O2)C(O)C(C)O1 (some centres not stated)
T/C (endpoint: median tumor weight (est.), dose: 0.25 mg/kg/injection, schedule: Q07DX006 (ip), vehicle: saline): 76 % of control | T/C (endpoint: median tumor weight (est.), dose: 0.5 mg/kg/injection, schedule: Q07DX006 (ip), vehicle: saline): 104 % of control | T/C (endpoint: median tumor weight (est.), dose: 1.0 mg/kg/injection, schedule: Q07DX006 (ip), vehicle: saline): 78 % of control

CC[C@@]1(O)C(=O)OCc2c1cc1n(c2=O)Cc2cc3cc(O)ccc3nc2-1
T/C (endpoint: median tumor weight change, dose: 1.85 mg/kg/injection, schedule: Q01DX001 (ip), vehicle: saline): 97 % of control | T/C (endpoint: median tumor weight change, dose: 7.5 mg/kg/injection, schedule: Q01DX001 (ip), vehicle: saline): 107 % of control | T/C (endpoint: median tumor weight change, dose: 15.0 mg/kg/injection, schedule: Q01DX001 (ip), vehicle: saline): 80 % of control | T/C (endpoint: median tumor weight change, dose: 30.0 mg/kg/injection, schedule: Q01DX001 (ip), vehicle: saline): 28 % of control

O=C1NC2(CCCCC2)C(=O)N1CCN(CCCl)CCCl
T/C (endpoint: mean tumor weight, dose: 3.0 mg/kg/injection, schedule: Q07DX005 (ip), vehicle: Klucel (hydroxypropylcellulose) (HPC)): 81 % of control | T/C (endpoint: mean tumor weight, dose: 6.0 mg/kg/injection, schedule: Q07DX005 (ip), vehicle: Klucel (hydroxypropylcellulose) (HPC)): 82 % of control | T/C (endpoint: mean tumor weight, dose: 12.0 mg/kg/injection, schedule: Q07DX005 (ip), vehicle: Klucel (hydroxypropylcellulose) (HPC)): 42 % of control | T/C (endpoint: mean tumor weight, dose: 24.0 mg/kg/injection, schedule: Q07DX005 (ip), vehicle: Klucel (hydroxypropylcellulose) (HPC)): 26 % of control | T/C (endpoint: median tumor weight (est.), dose: 3.0 mg/kg/injection, schedule: Q07DX005 (ip), vehicle: saline): 68 % of control | T/C (endpoint: median tumor weight (est.), dose: 6.0 mg/kg/injection, schedule: Q07DX005 (ip), vehicle: saline): 75 % of control | T/C (endpoint: median tumor weight (est.), dose: 12.0 mg/kg/injection, schedule: Q07DX005 (ip), vehicle: saline): 45 % of control | T/C (endpoint: median tumor weight (est.), dose: 24.0 mg/kg/injection, schedule: Q07DX005 (ip), vehicle: saline): 6 % of control | T/C (endpoint: median tumor weight change, dose: 9.0 mg/kg/injection, schedule: Q01DX001 (ip), vehicle: saline with Tween-80): 60 % of control | T/C (endpoint: median tumor weight change, dose: 9.38 mg/kg/injection, schedule: Q01DX001 (ip), vehicle: saline with Tween-80): 75 % of control | T/C (endpoint: median tumor weight change, dose: 18.0 mg/kg/injection, schedule: Q01DX001 (ip), vehicle: saline with Tween-80): 62 % of control | T/C (endpoint: median tumor weight change, dose: 37.0 mg/kg/injection, schedule: Q01DX001 (ip), vehicle: saline with Tween-80): 32 % of control | T/C (endpoint: median tumor weight change, dose: 75.0 mg/kg/injection, schedule: Q01DX001 (ip), vehicle: saline with Tween-80): 19 % of control

COc1cc(NCc2ccc3nc(N)nc(N)c3c2C)cc(OC)c1OC
T/C (endpoint: median tumor weight (est.), dose: 1.88 mg/kg/injection, schedule: Q07DX005 (ip), vehicle: sodium bicarbonate): 82 % of control | T/C (endpoint: median tumor weight (est.), dose: 3.75 mg/kg/injection, schedule: Q07DX005 (ip), vehicle: sodium bicarbonate): 63 % of control and 82 % of control | T/C (endpoint: median tumor weight (est.), dose: 7.5 mg/kg/injection, schedule: Q07DX005 (ip), vehicle: sodium bicarbonate): 114 % of control | T/C (endpoint: median tumor weight (est.), dose: 35.0 mg/kg/injection, schedule: Q04DX007 (ip), vehicle: water): 100 % of control | T/C (endpoint: median tumor weight (est.), dose: 35.0 mg/kg/injection, schedule: Q07DX005 (ip), vehicle: water): 87 % of control | T/C (endpoint: median tumor weight (est.), dose: 41.5 mg/kg/injection, schedule: Q04DX007 (ip), vehicle: water): 59 % of control | T/C (endpoint: median tumor weight (est.), dose: 44.0 mg/kg/injection, schedule: Q07DX005 (ip), vehicle: water): 44 % of control | T/C (endpoint: median tumor weight (est.), dose: 46.0 mg/kg/injection, schedule: Q07DX005 (ip), vehicle: water): 26 % of control | T/C (endpoint: median tumor weight (est.), dose: 47.4 mg/kg/injection, schedule: Q04DX007 (ip), vehicle: water): 29 % of control | T/C (endpoint: median tumor weight (est.), dose: 53.0 mg/kg/injection, schedule: Q04DX007 (ip), vehicle: water): 66 % of control | T/C (endpoint: median tumor weight (est.), dose: 53.0 mg/kg/injection, schedule: Q07DX005 (ip), vehicle: saline): 5 % of control | T/C (endpoint: median tumor weight (est.), dose: 53.0 mg/kg/injection, schedule: Q07DX005 (ip), vehicle: suspension in saline): 67 % of control | T/C (endpoint: median tumor weight (est.), dose: 62.2 mg/kg/injection, schedule: Q04DX007 (ip), vehicle: water): 29 % of control | T/C (endpoint: median tumor weight (est.), dose: 66.0 mg/kg/injection, schedule: Q07DX005 (ip), vehicle: water): 111 % of control | T/C (endpoint: median tumor weight (est.), dose: 70.0 mg/kg/injection, schedule: Q07DX005 (ip), vehicle: water): 44 % of control | T/C (endpoint: median tumor weight (est.), dose: 71.1 mg/kg/injection, schedule: Q04DX007 (ip), vehicle: water): 45 % of control | T/C (endpoint: median tumor weight (est.), dose: 80.0 mg/kg/injection, schedule: Q04DX007 (ip), vehicle: water): 121 % of control | T/C (endpoint: median tumor weight (est.), dose: 80.0 mg/kg/injection, schedule: Q07DX005 (ip), vehicle: suspension in saline): 23 % of control | T/C (endpoint: median tumor weight (est.), dose: 99.0 mg/kg/injection, schedule: Q07DX005 (ip), vehicle: water): 24 % of control | T/C (endpoint: median tumor weight (est.), dose: 105.0 mg/kg/injection, schedule: Q07DX005 (ip), vehicle: water): 41 % of control | T/C (endpoint: median tumor weight (est.), dose: 120.0 mg/kg/injection, schedule: Q04DX007 (ip), vehicle: water): 8 % of control | T/C (endpoint: median tumor weight (est.), dose: 120.0 mg/kg/injection, schedule: Q07DX005 (ip), vehicle: sodium bicarbonate): 37 % of control
